ChEMBL document CHEMBL5352390, “Design, synthesis and biological evaluation of (Quinazoline 4-yloxy)acetamide and (4-oxoquinazoline-3(4H)-yl)acetamide derivatives as inhibitors of Mycobacterium tuberculosis bd oxidase” (2022)
Converted amounts (≈) assume the structure as drawn. The source made the active and inactive calls. No cut-off for these calls is given here.

Key:
[1] = system: Mycobacterium tuberculosis; assay: Antimycobacterial activity against wild type Mycobacterium tuberculosis H37Rv assessed as inhibition of bacterial growth incubated for 7 days by resazurin microplate assay; type: functional; details: 168 h, time 7 day
[2] = system: Mycobacterium tuberculosis; assay: Bactericidal activity against wild type Mycobacterium tuberculosis H37Rv under hypoxia condition assessed as reduction in log10 CFU at 0.5 uM incubated for 3 days by Methylene blue dye based CFU assay; type: functional; details: time 3 day
[3] = system: Mycobacterium tuberculosis; assay: Inhibition of wild type Mycobacterium tuberculosis H37Rv cytochrome bd oxidase assessed as inhibition of oxygen consumption at 16 to 64 uM and measured for 20 days in presence of Q203 by Methylene blue dye based assay; details: dose 16-64 µM, time 20.0 day
[4] = system: Mycobacterium tuberculosis; assay: Bactericidal activity against wild type Mycobacterium tuberculosis H37Rv under hypoxia condition assessed as reduction in log10 CFU at 32 uM incubated for 3 days by Methylene blue dye based CFU assay; type: functional; details: time 3 day
[5] = system: Mycobacterium tuberculosis; assay: Synergistic bactericidal activity against wild type Mycobacterium tuberculosis H37Rv under hypoxia condition assessed as reduction in log10 CFU at 32 uM incubated for 3 days in presence of Q203 by Methylene blue dye based CFU assay; type: functional; details: time 3 day
[6] = system: Mycobacterium tuberculosis; assay: Inhibition of wild type Mycobacterium tuberculosis H37Rv cytochrome bd oxidase assessed as inhibition of oxygen consumption at 16 to 64 uM and measured after 5 days by Methylene blue dye based assay; details: dose 16-64 µM, time 5.0 day
[7] = system: Mycobacterium tuberculosis; assay: (§1) Inhibition of wild type Mycobacterium tuberculosis H37Rv cytochrome bd oxidase assessed as reduction in total cellular ATP level by measuring relative luminescence unit at 32 uM incubated for 15 hrs by BacTiter-Glo microbial cell viability reagent based bioluminescence assay relative to control (Rvb= 13.73%)
[8] = system: Mycobacterium tuberculosis; assay: as §1, with “hrs in presence of Q203” for “hrs”
[9] = system: Mycobacterium tuberculosis; assay: Synergistic antimycobacterial activity against wild type Mycobacterium tuberculosis H37Rv assessed as fractional inhibitory concentration index incubated for 7 days in presence of Q203 by checkboard format based resazurin microplate assay; type: functional; details: time 7 day
[10] = system: Mycobacterium tuberculosis; assay: as §1, with “0.1” for “32”
[11] = system: Mycobacterium tuberculosis; assay: Inhibition of wild type Mycobacterium tuberculosis H37Rv cytochrome bd oxidase assessed as inhibition of oxygen consumption at 0.1 uM and measured after 5 days by Methylene blue dye based assay; details: time 5.0 day
[12] = system: Mycobacterium tuberculosis; assay: Bactericidal activity against wild type Mycobacterium tuberculosis H37Rv under hypoxia condition assessed as reduction in log10 CFU at 0.03 uM incubated for 3 days by Methylene blue dye based CFU assay; type: functional; details: time 3 day
[13] = system: Mycobacterium tuberculosis; assay: Bactericidal activity against wild type Mycobacterium tuberculosis H37Rv under hypoxia condition assessed as reduction in log10 CFU at 0.5 ug/ml incubated for 3 days by Methylene blue dye based CFU assay; type: functional, organism-based; details: dose 0.5 µg/ml, time 3.0 day

For `O=C(COc1ncnc2ccccc12)NCc1ccc(N2CCN(c3ccc(F)cc3)CC2)cc1`, the MIC [1] was > 32 µM.

In the case of `COc1ccccc1NC(=O)Cn1cnc2ccccc2c1=O`, the MIC [1] is reported as > 32 µM.

Molecule `COc1nc2ccc(Br)cc2cc1[C@@H](c1ccccc1)[C@@](O)(CCN(C)C)c1cccc2ccccc12` [BEDAQUILINE] has an Activity [2] of 2.3 log10CFU.

For `COc1ccc(NC(=O)COc2ncnc3ccccc23)cc1`, the MIC [1] was > 32 µM.

With `Cc1ccc(NC(=O)COc2ncnc3ccccc23)cc1` the MIC [1] was > 32 µM.

`O=C(COc1ncnc2ccccc12)Nc1ccc(Br)cc1` was tested, and the MIC [1] was > 32 µM.

With `Cc1ccccc1NC(=O)COc1ncnc2ccccc12` the MIC [1] was > 32 µM.

For `O=C(Cn1cnc2ccccc2c1=O)NC1=C(C(F)(F)F)CCC=C1`, the MIC [1] was > 32 µM.

In the case of `CSc1ccc(NC(=O)Cn2cnc3ccccc3c2=O)cc1`, the MIC [1] is reported as > 32 µM.

For `O=C(Cn1cnc2ccccc2c1=O)Nc1ccc(OC(F)(F)F)cc1`, the MIC [1] was > 32 µM.

In the case of `O=C(COc1ncnc2ccccc12)Nc1ccc(C(F)(F)F)cc1`, the MIC [1] is reported as > 32 µM.

`O=C(COc1ncnc2ccccc12)NCc1ccc(N2CCN(c3ccccc3)CC2)cc1` was tested, and the MIC [1] was > 32 µM.

With `O=C(COc1ncnc2ccccc12)Nc1cccc2ccccc12` the MIC [1] was > 32 µM.

`O=C(COc1ncnc2ccccc12)Nc1ccc(OC(F)(F)F)cc1` was tested, and the MIC [1] was > 32 µM.

In the case of `O=C(COc1ncnc2ccccc12)Nc1ccc(F)cc1`, the MIC [1] is reported as > 32 µM.

In the case of `Cc1ccc(NC(=O)Cn2cnc3ccccc3c2=O)cc1`, the MIC [1] is reported as > 32 µM.

In the case of `O=C(COc1ncnc2ccccc12)NCc1ccccc1`, the MIC [1] is reported as > 32 µM.

With `O=C(COc1ncnc2ccccc12)Nc1ccccc1` the inhibition [3] was “Active”, the MIC [1] was 128 µM (≈ 35.8 µg/mL) and the Activity [4] was 1.9 log10CFU. The Activity [5] was 4 log10CFU, the inhibition [6] was “inactive” and the inhibition [7] was 7%. The inhibition [8] was 89.8% and the “fractional inhibitory concentration index (FICI)” value [9] was 1.062.

In the case of `O=C(Cn1cnc2ccccc2c1=O)Nc1ccccc1`, the MIC [1] is reported as > 32 µM.

With `O=C(Cn1cnc2ccccc2c1=O)Nc1ccc(F)cc1` the MIC [1] was > 32 µM.

`O=C(Cn1cnc2ccccc2c1=O)Nc1ccc(Cl)cc1` was tested, and the MIC [1] was > 32 µM.

For `O=C(COc1ncnc2ccccc12)NCc1ccc(N2CCC(c3ccccc3)CC2)cc1`, the MIC [1] was > 32 µM.

For `CCc1nc2ccc(Cl)cn2c1C(=O)NCc1ccc(N2CCC(c3ccc(OC(F)(F)F)cc3)CC2)cc1` [TELACEBEC], the inhibition [10] was 33.4%, the inhibition [11] was “inactive” and the MIC [1] was 0.016 µM (≈ 0.00891 µg/mL). The Activity [12] was 0.8 log10CFU.

`COc1ccccc1NC(=O)COc1ncnc2ccccc12` was tested, and the MIC [1] was > 32 µM.

`COc1ccc(NC(=O)Cn2cnc3ccccc3c2=O)cc1` was tested, and the MIC [1] was > 32 µM.

In the case of `O=C(COc1ncnc2ccccc12)NCc1ccc(N2CCN(Cc3ccccc3)CC2)cc1`, the MIC [1] is reported as > 32 µM.

With `COc1ccc(N2CCN(c3ccc(CNC(=O)COc4ncnc5ccccc45)cc3)CC2)cc1` the MIC [1] was > 32 µM.

With `NNC(=O)c1ccncc1` the Activity [13] was “inactive”.

With `O=C(Cn1cnc2ccccc2c1=O)Nc1ccc(Br)cc1` the MIC [1] was > 32 µM.

For `O=C(Cn1cnc2ccccc2c1=O)Nc1ccc(C(F)(F)F)cc1`, the MIC [1] was > 32 µM.

For `O=C(COc1ncnc2ccccc12)Nc1ccc(Cl)cc1`, the inhibition [3] was “Active”, the MIC [1] was 256 µM (≈ 80.3 µg/mL) and the Activity [4] was 1.9 log10CFU. The Activity [5] was 4 log10CFU, the inhibition [6] was “inactive” and the inhibition [7] was 22.8%. The inhibition [8] was 91.2% and the “fractional inhibitory concentration index (FICI)” value [9] was 0.375.

With `O=C(Cn1cnc2ccccc2c1=O)Nc1ccc([N+](=O)[O-])cc1` the MIC [1] was > 32 µM.
